Key:
Format in all cases: physicochemical
[1] = Solvent stability: strontium distribution ratios as a function of contact time with 1.5 M HNO3
Description: (§1) The stability of the mixed extractant solvents prepared using dialkyloxycalix[4]arenebenzocrown-6 compounds (MC-8, MC-8B, MC-10, MC-10B, MC-12, or MC-12B) relative to BOBCalixC6 in the FPEX I process solvent was determined. Samples were prepared using each of the dialkyloxycalix[4]arenebenzocrown-6 compounds and contacted with 1.5 M HNO3. The samples included 0.007 M of the respective dialkyloxycalix[4]arenebenzo-crown-6 compound (MC-8, MC-8B, MC-10, MC-10B, MC-12, or MC-12B), 0.075 M DtBuCH18C6, 0.75 M Cs-7SB modifier, and 0.003 M TOA in ISOPAR® L. The stability of the dialkyloxycalix[4]arene-benzocrown-6 based solvents was evaluated by measuring the cesium and strontium distribution ratios as a function of contact time. These cesium and strontium distribution ratios for the mixed extractant solvents are presented in Table 9 and Table 10, respectively, along with the cesium and strontium distribution ratios for the FPEX I process solvent. The symbol “-” is used in Tables 9 and 10 to indicate no data was collected.
(§2) This degradation is likely due to chemical attack or nitration of the BOBCalixC6 in the FPEX I process solvent. […] However, it is difficult to compare the relative extents of degradation. In order to compare the different extractants, the distribution ratio data presented in Tables 9 and 10 were normalized to the values obtained at t=0 days contact. The normalized cesium and strontium distribution ratios for the FPEX I process solvent and the mixed extractant solvents as a function of contact time are presented in FIGS. 2 and 3, respectively.

[2] = Strontium distribution ratio (DSr), equilibrium batch contact of mixed extractant solvent with nitric acid feed; settings: for Strontium distribution ratio, contact E1: first forward extraction, 1.5 M HNO3 feed simulant, 0.007 M calixarene, 0.075 M DtBuCH18C6, 0.75 M Cs-7SB, 0.003 M TOA in ISOPAR L; for Strontium distribution ratio, contact E1 / Strontium distribution ratio, contact E2 / Strontium distribution ratio, contact E3: 25 °C; for Strontium distribution ratio, contact St1: first strip with 0.01 M HNO3, 35 °C; for Strontium distribution ratio, contact St1 / Strontium distribution ratio, contact E2 / Strontium distribution ratio, contact St2 / Strontium distribution ratio, contact E3: 0.007 M calixarene solvent; for Strontium distribution ratio, contact E2: second forward extraction; for Strontium distribution ratio, contact E2 / Strontium distribution ratio, contact E3: 1.5 M HNO3 feed; for Strontium distribution ratio, contact St2: second strip with 0.01 M HNO3, 35 °C; for Strontium distribution ratio, contact E3: third forward extraction
[3] = Solvent stability: cesium distribution ratios as a function of contact time with 1.5 M HNO3
Description: as §1, §2

[4] = Cesium distribution ratio (DCs), equilibrium batch contact of mixed extractant solvent with nitric acid feed; settings: for Cesium distribution ratio, contact E1: first forward extraction, 1.5 M HNO3 feed simulant, 0.075 M DtBuCH18C6, 0.75 M Cs-7SB, 0.003 M TOA in ISOPAR L; for Cesium distribution ratio, contact E1 / Cesium distribution ratio, contact E2 / Cesium distribution ratio, contact E3: 25 °C; for Cesium distribution ratio, contact St1: first strip with 0.01 M HNO3, 35 °C; for Cesium distribution ratio, contact St1 / Cesium distribution ratio, contact E2 / Cesium distribution ratio, contact St2 / Cesium distribution ratio, contact E3: 0.007 M calixarene solvent; for Cesium distribution ratio, contact E2: second forward extraction; for Cesium distribution ratio, contact St2: second strip with 0.01 M HNO3, 35 °C; for Cesium distribution ratio, contact E3: third forward extraction
Text: The distribution of cesium and strontium between the first organic phase (the mixed extractant solvent including the dialkyloxycalix[4]arenebenzocrown-6 compound) and the first aqueous phase (aqueous feed) may be determined by conventional techniques. The distribution ratio for strontium (“DSr”) may be calculated as the ratio of organic phase activity to the aqueous phase activity at equilibrium. High values for the DSr indicate that the strontium is present predominantly in the organic phase while low values for the DSr indicate that the strontium is present predominantly in the aqueous phase. Similarly, the distribution ratio for cesium (“DCs”) may be calculated as the ratio of organic phase activity to the aqueous phase activity at equilibrium. High values for the DCs indicate that the cesium is present predominantly in the organic phase while low values for the DCs indicate that the cesium is present predominantly in the aqueous phase.
Distribution ratios (DM=[M]org/[M]aq) were measured by equilibrium batch contacts between the organic and aqueous phases at an organic-to-aqueous phase ratio (O/A) of unity (O/A=1). All distribution ratio measurements were conducted in a temperature controlled water bath at 25±1° C. The aqueous phase was of the appropriate HNO3 concentration, to which trace quantities (typically, less than 10^−7 M each) of the major radionuclides of interest (^137Cs, ^85Sr, ^154Eu, or ^241Am) were added. The organic and aqueous phases were contacted by vortex mixing for 1 minute. All batch contact experiments were performed at ambient temperature (from approximately 20° C. to approximately 25° C.) unless otherwise noted. Following extraction, the samples were centrifuged for 1 minute and the organic and aqueous phases separated by pipet or centrifugation. The distribution ratios (DSr, or DCs) were calculated as the ratio of the appropriate specific activities in the organic and aqueous phases as determined by γ-ray counting (gamma spectroscopy). The counting time was selected to provide less than approximately 1% statistical uncertainty.
(MC-8, MC-8B, MC-10, MC-10B, MC-12, or MC-12B), 0.075 M DtBuCH18C6, 0.75 M Cs-7SB modifier, and 0.003 M TOA in ISOPAR® L were evaluated for their respective abilities to simultaneously extract cesium and strontium from the aqueous feed simulant composition described in Table 2. The cesium and strontium distribution ratios of the mixed extraction solvents were compared to those of the FPEX I process solvent. The cesium extraction performance and strontium extraction performance of each of the mixed extractant solvents was determined using the batch contact flowsheet presented in FIG. 1, where “E1,” “E2,” and “E3” refer to three forward extraction acts: a first extraction act, a second extraction act, and a third extraction act, respectively, and “St1” and “St2” refer to two backward extraction acts: a first strip act and a second strip act, respectively. […] The aqueous feed 2 and the mixed extractant solvent 4 were combined in a vessel 6 to conduct the extraction. Two phases were formed during the extraction: the first organic phase and the first aqueous phase, with the cesium and strontium substantially distributed in the first organic phase.
The cesium and strontium distribution ratios for the mixed extractant solvents 4 were calculated for the first organic phase and are reported in Tables 3 and 4, respectively, as E1, along with the cesium and strontium distribution ratios for the FPEX I process solvent. The cesium and strontium were stripped from the first (and subsequent) organic phase to recover these radionuclides. For the strips or backward extractions, the first (and subsequent) organic phase was contacted with dilute acidic solution 8, which was 0.01 M HNO3. […]

[5] = Third phase formation on contact with nitric acid; settings: 5 M HNO3; 0.025 M BOBCalixC6, 0.075 DtBuCH18C6, 0.003 M TOA, 0.75 M EXXAL 12 in ISOPAR L
[6] = contact time 0 days with 1.5 M HNO3, 0.007 M calixarene, 0.075 M DtBuCH18C6, 0.75 M Cs-7SB, 0.003 M TOA in ISOPAR L
[7] = contact time 34 days with 1.5 M HNO3
[8] = contact time 70 days with 1.5 M HNO3
[9] = contact time 278 days with 1.5 M HNO3
[10] = contact time 36 days with 1.5 M HNO3
[11] = contact time 244 days with 1.5 M HNO3

Compound	Strontium distribution ratio as a function of contact time [1, 6]	Strontium distribution ratio as a function of contact time [1, 7]	Strontium distribution ratio as a function of contact time [1, 8]	Strontium distribution ratio as a function of contact time [1, 9]	Strontium distribution ratio, contact E1 [2]	Strontium distribution ratio, contact St1 [2]	Strontium distribution ratio, contact E2 [2]	Strontium distribution ratio, contact St2 [2]	Strontium distribution ratio, contact E3 [2]	Cesium distribution ratio as a function of contact time [3, 6]	Cesium distribution ratio as a function of contact time [3, 7]	Cesium distribution ratio as a function of contact time [3, 8]	Cesium distribution ratio as a function of contact time [3, 9]	Cesium distribution ratio, contact E1 ([4]; 0.007 M calixarene)	Cesium distribution ratio, contact St1 [4]	Cesium distribution ratio, contact E2 ([4]; 1.5 M HNO3 feed)	Cesium distribution ratio, contact St2 [4]	Cesium distribution ratio, contact E3 ([4]; 1.5 M HNO3 feed)	Strontium distribution ratio as a function of contact time [1, 10]	Strontium distribution ratio as a function of contact time [1, 11]	other results
CCCCC(CC)COc1c2cccc1Cc1cccc3c1OCCOCCOc1ccccc1OCCOCCOc1c(cccc1Cc1cccc(c1OC[C@H](CC)CCCC)C3)C2 (stereo partly shown) [MC-8B, 1,3-alternate-25,27-di(2-ethylhexyl-1-oxy)calix[4]arenebenzocrown-6]	8.9	7.2	9.3	7.6	8.9	0.06	8.3	0.01	8.1	1.36	0.8	1.5	2.8	1.4	0.2	1.1	0.1	1.0			stability toward hydrolytic degradation (normalized cesium distribution ratios, FIG. 2) ([3]; prolonged contact with 1.5 M HNO3): most resistant toward hydrolytic degradation; cesium distribution ratios, comparison in words ([4]; 0.007 M calixarene, 1.5 M HNO3 feed): lowest distribution ratios
CCCCCCCCCCCCOc1c2cccc1Cc1cccc3c1OCCOCCOc1ccccc1OCCOCCOc1c(cccc1Cc1cccc(c1OCCCCCCCCCCCC)C3)C2 [MC-12, 1,3-alternate-25,27-di(dodecyloxy)calix[4]arenebenzocrown-6]	7.5				7.7	0.04	7.5	0.01	7.0	3.0			2.8	2.9	0.4	1.7	0.2	1.3	7.1	6.1	Cesium distribution ratio as a function of contact time [3, 10]: 2.5; Cesium distribution ratio as a function of contact time [3, 11]: 2.2
4′,4′,(5′)-di-(t-butyldicyclohexano)-18-crown-6 [DtBuCH18C6, reference compound]																					stability (normalized strontium distribution ratios, FIG. 3) ([1]; prolonged contact with HNO3): subject to degradation following prolonged contact with HNO3
CCCCC(CCCC)CCCOc1c2cccc1Cc1cccc3c1OCCOCCOc1ccccc1OCCOCCOc1c(cccc1Cc1cccc(c1OCCCC(CCCC)CCCC)C3)C2 [MC-12B, 1,3-alternate-25,27-di(4-butyloctyl-1-oxy)calix[4]arenebenzocrown-6]	6.3				7.7	0.03	6.7	0.02	6.3	3.3				2.5	0.4	1.3	0.2	1.1	6.9	5.7	Cesium distribution ratio as a function of contact time [3, 10]: 2.1; Cesium distribution ratio as a function of contact time [3, 11]: 1.8
CCCCCCCCCCOc1c2cccc1Cc1cccc3c1OCCOCCOc1ccccc1OCCOCCOc1c(cccc1Cc1cccc(c1OCCCCCCCCCC)C3)C2 [MC-10, 1,3-alternate-25,27-di(decyloxy)calix[4]arenebenzocrown-6]	9.5	7.7	9.0	7.7	9.5	0.06	8.4	0.01	8.3	3.7	3.0	3.5	1.1	3.7	0.5	2.0	0.2	1.6			
CC(C)(C)CC(C)(C)c1ccc2c(c1)OCCOCCOc1c3cccc1Cc1cccc4c1OCCOCCOc1cc(C(C)(C)CC(C)(C)C)ccc1OCCOCCOc1c(cccc1C3)Cc1cccc(c1OCCOCCO2)C4 [BOBCalixC6, calix[4]arene-bis(tert-octylbenzo)-crown-6, reference compound]																					third phase formation [5]: Third phase formation was observed
